{"source": "ChEMBL document CHEMBL1154504", "about": "“Discovery and development of heat shock protein 90 inhibitors” (Bioorg Med Chem, 2009)", "key": {"[1]": {"biological_target": "T1, Heat shock protein HSP 90-beta (Homo sapiens, UniProt P08238)", "T1 sequence (P08238 whole entry)": "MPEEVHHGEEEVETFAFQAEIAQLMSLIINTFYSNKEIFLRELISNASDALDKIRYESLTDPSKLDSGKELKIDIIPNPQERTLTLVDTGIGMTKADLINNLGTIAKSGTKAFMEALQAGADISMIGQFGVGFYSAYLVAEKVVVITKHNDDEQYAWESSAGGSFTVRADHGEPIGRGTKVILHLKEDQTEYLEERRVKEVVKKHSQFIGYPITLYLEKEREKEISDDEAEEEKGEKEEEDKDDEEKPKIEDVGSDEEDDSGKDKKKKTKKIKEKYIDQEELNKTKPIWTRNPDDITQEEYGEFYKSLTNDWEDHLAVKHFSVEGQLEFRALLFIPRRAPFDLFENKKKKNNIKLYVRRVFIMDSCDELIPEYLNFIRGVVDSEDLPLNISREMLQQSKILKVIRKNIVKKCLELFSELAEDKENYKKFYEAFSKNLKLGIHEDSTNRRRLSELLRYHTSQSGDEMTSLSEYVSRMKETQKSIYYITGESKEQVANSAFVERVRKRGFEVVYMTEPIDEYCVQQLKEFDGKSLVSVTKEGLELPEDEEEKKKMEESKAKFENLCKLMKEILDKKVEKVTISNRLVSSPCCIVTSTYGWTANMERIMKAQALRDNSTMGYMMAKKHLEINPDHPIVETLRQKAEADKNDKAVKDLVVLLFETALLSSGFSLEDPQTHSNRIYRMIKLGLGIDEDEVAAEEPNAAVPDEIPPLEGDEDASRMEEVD", "assay": "Inhibition of Hsp90 in human SKBR3 cells assessed as Her2 degradation", "type": "cell-based, SK-BR-3"}, "[2]": {"biological_target": "T1, Heat shock protein HSP 90-beta", "assay": "Inhibition of Hsp90"}, "HCT-116 [3]": {"test_system": "HCT-116", "assay": "cells", "conditions": "Homo sapiens", "description": "Antiproliferative against human HCT116 cells"}, "MCF7 [4]": {"test_system": "MCF7", "assay": "Cytotoxicity against human MCF7 cells", "type": "functional, cell-based"}, "[5]": {"biological_target": "T1, Heat shock protein HSP 90-beta", "assay": "Inhibition of Hsp90 in human MCF7 cells assessed as Her2 degradation", "type": "cell-based"}, "[6]": {"biological_target": "T1, Heat shock protein HSP 90-beta", "assay": "Binding affinity to Hsp90 by fluorescence polarization assay"}, "[7]": {"assay": "Solubility in water", "type": "physicochemical"}, "[8]": {"biological_target": "T1, Heat shock protein HSP 90-beta", "assay": "Inhibition of Hsp90 assessed as Her2 degradation by cell based assay"}, "NCI-N87 [9]": {"test_system": "NCI-N87", "assay": "Antitumor activity in human NCI-N87 cells xenografted mouse assessed as inhibition of tumor growth at 60 mg/kg, po administered daily once for 5 days per week measured after 5 weeks", "type": "functional", "conditions": "read-out: GI"}, "NCI-N87 [10]": {"test_system": "NCI-N87", "assay": "Antitumor activity in human NCI-N87 cells xenografted mouse assessed as inhibition of tumor growth at 125 mg/kg, po administered daily once for 5 days per week measured after 5 weeks", "type": "functional", "conditions": "read-out: GI"}, "HCT-116 [11]": {"test_system": "HCT-116", "assay": "Antitumor activity in human HCT116 cells xenografted mouse assessed as inhibition of tumor growth at 100 mg/kg, ip", "type": "functional", "conditions": "HCT-116, ip, route intraperitoneal, read-out: GI"}, "NCI-N87 [12]": {"test_system": "NCI-N87", "assay": "Antitumor activity in human NCI-N87 cells xenografted mouse assessed as inhibition of tumor growth at 200 mg/kg, po administered daily once for 5 days per week measured after 30 days", "type": "functional", "conditions": "read-out: GI"}, "cells": {"assay": "cells", "conditions": "Homo sapiens, NCI60, read-out: GI", "description": "Growth inhibition of human NCI60 cells at 13 nM"}, "[13]": {"biological_target": "T1, Heat shock protein HSP 90-beta", "assay": "Binding affinity to Hsp90 in human SKBR3 cells", "type": "cell-based, SK-BR-3"}, "MCF7 [14]": {"test_system": "MCF7", "assay": "Antitumor activity in human MCF7 cells xenografted mouse assessed as reduction of tumor burden at 200 mg/kg, ip administered alternative days", "type": "functional", "design": "scale not given: the % may be the effect or the level left", "conditions": "route intraperitoneal"}, "[15]": {"biological_target": "ATP-dependent molecular chaperone HSP82 (Saccharomyces cerevisiae S288c, UniProt P02829)", "sequence (P02829 whole entry)": "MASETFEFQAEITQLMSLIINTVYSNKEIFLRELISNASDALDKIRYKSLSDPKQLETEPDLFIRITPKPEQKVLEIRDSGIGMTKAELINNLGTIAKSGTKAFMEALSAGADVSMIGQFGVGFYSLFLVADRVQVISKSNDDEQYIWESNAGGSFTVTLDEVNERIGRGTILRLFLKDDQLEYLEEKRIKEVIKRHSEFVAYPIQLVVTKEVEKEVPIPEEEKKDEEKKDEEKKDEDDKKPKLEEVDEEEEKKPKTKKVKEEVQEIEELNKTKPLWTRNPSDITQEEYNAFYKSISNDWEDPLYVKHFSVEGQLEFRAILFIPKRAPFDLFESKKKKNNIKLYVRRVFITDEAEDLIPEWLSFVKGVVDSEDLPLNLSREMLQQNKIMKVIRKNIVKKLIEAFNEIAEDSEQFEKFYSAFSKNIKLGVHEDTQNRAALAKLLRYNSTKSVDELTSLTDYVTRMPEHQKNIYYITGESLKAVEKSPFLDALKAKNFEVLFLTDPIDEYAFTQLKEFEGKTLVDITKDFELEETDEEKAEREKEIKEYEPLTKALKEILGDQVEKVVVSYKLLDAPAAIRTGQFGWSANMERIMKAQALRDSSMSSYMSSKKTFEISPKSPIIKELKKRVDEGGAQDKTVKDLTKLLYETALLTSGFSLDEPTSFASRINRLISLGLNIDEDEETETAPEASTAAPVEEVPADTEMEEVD", "assay": "Binding affinity to yeast Hsp90 ATPase activity"}, "HCT-116 [16]": {"test_system": "HCT-116", "assay": "Antitumor activity in human HCT116 cells xenografted mouse assessed as inhibition of tumor growth at 50 mg/kg, ip", "type": "functional", "conditions": "HCT-116, ip, route intraperitoneal, read-out: GI"}, "[17]": {"assay": "Inhibition of Rous sarcoma virus v-Src"}, "[18]": {"biological_target": "Receptor tyrosine-protein kinase erbB-2 (Homo sapiens, UniProt P04626)", "sequence (P04626 whole entry)": "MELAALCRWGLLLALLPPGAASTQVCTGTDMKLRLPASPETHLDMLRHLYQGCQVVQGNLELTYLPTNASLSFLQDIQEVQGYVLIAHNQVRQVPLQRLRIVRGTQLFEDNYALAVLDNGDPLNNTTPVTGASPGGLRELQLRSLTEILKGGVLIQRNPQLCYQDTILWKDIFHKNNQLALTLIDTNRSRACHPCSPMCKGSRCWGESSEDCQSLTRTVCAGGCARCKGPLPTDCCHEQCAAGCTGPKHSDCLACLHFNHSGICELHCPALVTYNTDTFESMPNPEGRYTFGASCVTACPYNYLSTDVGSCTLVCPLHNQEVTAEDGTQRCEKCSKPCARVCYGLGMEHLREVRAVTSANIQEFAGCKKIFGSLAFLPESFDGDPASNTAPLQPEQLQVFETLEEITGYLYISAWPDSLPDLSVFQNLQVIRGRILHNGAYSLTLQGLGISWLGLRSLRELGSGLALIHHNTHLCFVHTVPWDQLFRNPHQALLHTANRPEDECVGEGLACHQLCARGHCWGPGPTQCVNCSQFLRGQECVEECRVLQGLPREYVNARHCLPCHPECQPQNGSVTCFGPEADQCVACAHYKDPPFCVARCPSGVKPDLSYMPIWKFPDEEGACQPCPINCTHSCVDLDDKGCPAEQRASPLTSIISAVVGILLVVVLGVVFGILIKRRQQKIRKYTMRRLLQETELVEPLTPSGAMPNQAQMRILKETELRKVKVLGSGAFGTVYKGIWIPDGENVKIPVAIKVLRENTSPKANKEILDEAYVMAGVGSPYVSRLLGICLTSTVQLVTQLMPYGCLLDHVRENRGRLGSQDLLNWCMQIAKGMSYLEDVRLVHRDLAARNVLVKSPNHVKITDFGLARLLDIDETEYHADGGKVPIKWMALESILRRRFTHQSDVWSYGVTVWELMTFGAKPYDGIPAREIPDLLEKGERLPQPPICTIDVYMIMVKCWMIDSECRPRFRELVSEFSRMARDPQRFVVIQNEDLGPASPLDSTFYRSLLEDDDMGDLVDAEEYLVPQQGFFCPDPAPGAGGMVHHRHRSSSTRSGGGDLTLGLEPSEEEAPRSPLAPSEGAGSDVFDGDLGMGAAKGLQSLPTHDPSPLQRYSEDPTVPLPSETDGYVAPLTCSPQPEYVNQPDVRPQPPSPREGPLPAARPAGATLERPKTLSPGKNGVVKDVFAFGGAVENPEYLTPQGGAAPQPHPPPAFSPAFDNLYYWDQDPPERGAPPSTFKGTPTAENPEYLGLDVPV", "assay": "Inhibition of Her2 in human SKBR3 cells", "type": "cell-based, SK-BR-3"}}}
{"smiles": "C#CCCCn1c(Sc2cc3c(cc2Br)OCO3)nc2c(N)ncnc21", "values": [{"measurement": "IC50", "setting": "[1]", "result": 300, "unit": "nM"}, {"measurement": "EC50", "setting": "[2]", "result": 30, "unit": "nM"}]}
{"smiles": "CCNC(=O)c1noc(-c2cc(C(C)C)c(O)cc2O)c1-c1ccc(CN(CC)CC)cc1", "values": [{"measurement": "GI50", "setting": "HCT-116 [3]", "result": 6, "unit": "nM"}]}
{"smiles": "C[C@@H]1C[C@H]2C[C@@H]2/C=C\\C=C\\C(=O)Cc2c(Cl)c(O)cc(O)c2C(=O)O1", "note": "[CYCLOPROPARADICICOL]", "values": [{"measurement": "IC50", "setting": "MCF7 [4]", "result": 43, "unit": "nM"}, {"measurement": "ED50", "setting": "[2]", "result": 160, "unit": "nM"}]}
{"smiles": "Oc1cc(O)c(-c2n[nH]cc2N2CCN(Cc3ccccc3)CC2)cc1Cl", "values": [{"measurement": "GI50", "setting": "HCT-116 [3]", "result": 6500, "unit": "nM"}]}
{"smiles": "C[C@H]1C[C@H]2O[C@@H]2CC/C=C/C(=O)Cc2c(Cl)c(O)cc(O)c2C(=O)O1", "note": "[POCHONIN A]", "values": [{"measurement": "IC50", "setting": "[2]", "result": 90, "unit": "nM"}]}
{"smiles": "Nc1ncnc2c1nc(Sc1nc3cccc(Cl)c3s1)n2CCNC1CC1", "values": [{"measurement": "IC50", "setting": "[5]", "result": 110, "unit": "nM"}]}
{"smiles": "Cc1cc(C#Cc2ccccc2/C=N/N2CCOC2=O)nc(N)n1", "values": [{"measurement": "Ki", "setting": "[6]", "result": 4000, "unit": "nM"}]}
{"smiles": "C=CCNc1c(O)cc2c(O)c1C[C@@H](C)C[C@H](OC)[C@H](O)[C@@H](C)/C=C(\\C)[C@H](OC(N)=O)[C@@H](OC)/C=C\\C=C(/C)C(=O)N2.Cl", "note": "[RETASPIMYCIN HYDROCHLORIDE]", "values": [{"measurement": "solubility", "setting": "[7]", "result": "> 250000", "unit": "µg/mL"}]}
{"smiles": "CCCCn1c(Sc2nc3cccc(Cl)c3s2)nc2c(N)ncnc21", "values": [{"measurement": "IC50", "setting": "[5]", "result": 180, "unit": "nM"}]}
{"smiles": "COc1c(C)ncc(Cn2cnc3c(Cl)nc(N)nc32)c1C", "values": [{"measurement": "IC50", "setting": "[8]", "result": 20, "unit": "nM"}, {"measurement": "inhibition in vivo at 60 mg/kg", "setting": "NCI-N87 [9]", "result": 83, "unit": "%"}, {"measurement": "inhibition in vivo at 125 mg/kg", "setting": "NCI-N87 [10]", "result": 87, "unit": "%"}]}
{"smiles": "CCNC(=O)c1noc(-c2cc(Cl)c(O)cc2O)c1-c1ccc(OC)cc1", "values": [{"measurement": "inhibition in vivo at 100 mg/kg", "setting": "HCT-116 [11]", "result": 30, "unit": "%"}]}
{"smiles": "COc1ccc(I)c(Sc2nc3c(N)ncnc3n2CCNCC(C)(C)C)c1", "values": [{"measurement": "solubility", "setting": "[7]", "result": "> 10000", "unit": "µg/mL"}, {"measurement": "inhibition in vivo at 200 mg/kg", "setting": "NCI-N87 [12]", "result": 70, "unit": "%"}]}
{"smiles": "C[C@@H]1C/C=C/CC/C=C/C(=O)Cc2c(Cl)c(O)cc(O)c2C(=O)O1", "note": "[POCHONIN D]", "values": [{"measurement": "IC50", "setting": "[2]", "result": 80, "unit": "nM"}]}
{"smiles": "Cc1nc(-c2c(-c3ccc(O)cc3O)noc2C(F)(F)F)cs1", "values": [{"measurement": "IC50", "setting": "[2]", "result": 9000, "unit": "nM"}]}
{"smiles": "COC1=C2C[C@@H](C)C[C@H](OC)[C@H](O)[C@@H](C)/C=C(\\C)[C@H](OC(N)=O)[C@@H](OC)/C=C\\C=C(/C)C(=O)NC(=CC1=O)C2=O", "note": "[GELDANAMYCIN]", "values": [{"measurement": "inhibition of growth at 0.013 µM", "setting": "cells", "result": 50, "unit": "%"}]}
{"smiles": "C[C@@H]1C[C@H]2O[C@@H]2/C=C\\C=C\\C(=O)Cc2c(Cl)c(O)cc(O)c2C(=O)O1", "note": "[RADICICOL]", "values": [{"measurement": "IC50", "setting": "MCF7 [4]", "result": 23, "unit": "nM"}]}
{"smiles": "O=S(=O)(Nc1ccc(O)c(-c2c(O)ccc3ccccc23)c1)c1cc(Cl)ccc1Cl", "values": [{"measurement": "GI50", "setting": "HCT-116 [3]", "result": 29000, "unit": "nM"}]}
{"smiles": "Oc1cc(O)c(-c2noc3ccc(NCCN4CCOCC4)cc23)cc1Cl", "values": [{"measurement": "IC50", "setting": "[6]", "result": 30, "unit": "nM"}]}
{"smiles": "C[C@H]1CCCC(=O)CCCCCc2cc(O)cc(O)c2C(=O)O1", "note": "[ZEARALANONE]", "values": [{"measurement": "IC50", "setting": "[2]", "result": 90, "unit": "nM"}]}
{"smiles": "CS(=O)(=O)c1ccc(CN2CCN(c3cn[nH]c3-c3cc(Cl)c(O)cc3O)CC2)cc1", "values": [{"measurement": "GI50", "setting": "HCT-116 [3]", "result": 3100, "unit": "nM"}, {"measurement": "IC50", "setting": "[6]", "result": 740, "unit": "nM"}]}
{"smiles": "CO[C@H]1C[C@H](C)Cc2cc(O)cc(c2)NC(=O)/C=C/CC[C@H](OC)[C@@H](OC(N)=O)/C(C)=C/[C@H](C)[C@H]1O", "values": [{"measurement": "Kd", "setting": "[13]", "result": 16, "unit": "nM"}]}
{"smiles": "C#CCCCn1c(Cc2cc(OC)c(OC)c(OC)c2Cl)nc2c(N)nc(F)nc21", "values": [{"measurement": "Activity", "setting": "MCF7 [14]", "result": 72, "unit": "%"}]}
{"smiles": "Cc1[nH]nc(-c2cc(Cl)c(O)cc2O)c1-c1ccc2c(c1)OCCO2", "values": [{"measurement": "GI50", "setting": "HCT-116 [3]", "result": 4000, "unit": "nM"}, {"measurement": "IC50", "setting": "[15]", "result": "< 1000", "unit": "nM"}]}
{"smiles": "CCNC(=O)c1noc(-c2cc(C(C)C)c(O)cc2O)c1-c1ccc(CN2CCOCC2)cc1", "note": "[LUMINESPIB]", "values": [{"measurement": "inhibition in vivo at 50 mg/kg", "setting": "HCT-116 [16]", "result": 50, "unit": "%"}]}
{"smiles": "CC(C)NCCCn1c(Cc2cc3c(cc2I)OCO3)nc2c(N)nc(F)nc21", "values": [{"measurement": "IC50", "setting": "[1]", "result": 90, "unit": "nM"}, {"measurement": "EC50", "setting": "[6]", "result": 22, "unit": "nM"}]}
{"smiles": "COc1ccc(I)c(Sc2nc3c(N)ncnc3n2CCCNC(C)(C)C)c1", "values": [{"measurement": "solubility", "setting": "[7]", "result": "> 10000", "unit": "µg/mL"}]}
{"smiles": "CCc1cc(-c2[nH]nc(C)c2-c2ccc3c(c2)OCCO3)c(O)cc1O", "values": [{"measurement": "GI50", "setting": "HCT-116 [3]", "result": 4100, "unit": "nM"}]}
{"smiles": "CC(C)(C)CNCCn1c(Sc2nc3cccc(Cl)c3s2)nc2c(N)ncnc21", "values": [{"measurement": "IC50", "setting": "[5]", "result": 35, "unit": "nM"}]}
{"smiles": "C[C@@H]1C[C@H]2O[C@@H]2\\C=C/C=C/C(=N\\OC(=O)N2CCCCC2)Cc2c(Cl)c(O)cc(O)c2C(=O)O1", "values": [{"measurement": "IC50", "setting": "[17]", "result": 25, "unit": "nM"}]}
{"smiles": "C=CCNC1=C2C[C@@H](C)C[C@H](OC)[C@H](O)[C@@H](C)/C=C(\\C)[C@H](OC(N)=O)[C@@H](OC)/C=C\\C=C(/C)C(=O)NC(=CC1=O)C2=O", "note": "[TANESPIMYCIN]", "values": [{"measurement": "IC50", "setting": "[18]", "result": 31, "unit": "nM"}, {"measurement": "solubility", "setting": "[7]", "result": 50, "unit": "µg/mL"}]}
